The source of these data is ChEMBL document CHEMBL4017458, “Discovery of selective, orally bioavailable, N-linked arylsulfonamide Nav1.7 inhibitors with pain efficacy in mice” (Bioorg Med Chem Lett, 2017).

The nature of data set [1]: Tmax in po dosed C57BL/6 mouse. In kind it is ADME, organism-based. To be noted: in vivo.
Data set [2] relates to Plasma. The data set is described as follows: Plasma concentration in C57BL/6 mouse at 3 to 30 mg/kg, po. In kind it is ADME, organism-based. To be noted: in vivo.
In another data set the test system is Brain. The experiment in a line: Drug uptake in C57BL/6 mouse brain at 30 mg/kg, po. The class given is ADME, organism-based. To be noted: in vivo.
Data set [3] in a line: Drug uptake in CSF of C57BL/6 mouse at 30 mg/kg, po. The class given is ADME, organism-based, Cerebrospinal fluid. Conditions: in vivo.
A short description of data set [4]: Lipophilicity, log D of compound by HPLC analysis. In kind it is physicochemical.
A short description of data set [5]: Oral bioavailability in rat at 10 mg/kg. In kind it is ADME, organism-based. Conditions: in vivo.
The nature of data set [6]: Kinetic solubility of the compound at pH 2 by HPLC analysis. In kind it is physicochemical. To be noted: buffer, read-out: Kinetic_solubility.
Data set [7] can be described thus: Kinetic solubility of the compound at pH 7 by HPLC analysis. In kind it is physicochemical. Conditions: buffer, read-out: Kinetic_solubility.
The subject of another data set is Rattus norvegicus. The experiment in a line: Intrinsic clearance in rat at 0.05 mg/kg, iv administered in cassette format or 2 mg/kg, iv administered as single dose or 10 mg/kg, po. The class given is ADME, organism-based. To be noted: in vivo.
Data set [8] has as its system Plasma. The data set is described as follows: Plasma concentration in C57BL/6 mouse at 1 to 10 mg/kg, po. In kind it is ADME, organism-based. Conditions: in vivo.

≈ marks a conversion by molar mass, not a printed value.

As usually defined, the Tmax is the time from dosing to the highest level. One may read the logD as lipophilicity at a set pH, counting ionised and neutral species. A low value points to a more hydrophilic compound. What is called bioavailability is the share of a dose that reaches the circulation, judged against a reference dose that is usually intravenous. Lower therefore signals little systemic uptake. For `O=S(=O)(Nc1nccs1)c1cc(Cl)c(NCC23CCCN2CCC3)cc1F`, in [1], the Tmax was 3 h. In the data set with Plasma [2], this compound registered a concentration of 420 nM. Moreover, the Drug uptake stood at 6% in the data set on Brain and 1% in data set [3]. The compound further displayed a logD in data set [4] of 0.7. Further, the bioavailability in data set [5] turned out to be 40%. The solubility kinetic in data set [6] was 159 µM (≈ 68.5 µg/mL); in data set [7], 43 µM (≈ 18.5 µg/mL).
For `CC1(C)CN2CCC[C@]2(CNc2cc(F)c(S(=O)(=O)Nc3nccs3)cc2Cl)C1`, the Tmax in data set [1] was 3 h. In data set [4], the logD turned out to be 1.7. Also, the CL in the data set with Rattus norvegicus is 460 mL/min/kg. Moreover, in data set [5], the bioavailability is 61%. In addition, the solubility kinetic was 143 µM (≈ 65.6 µg/mL) in data set [6] and 28 µM (≈ 12.9 µg/mL) in data set [7]. Moreover, the concentration with Plasma [8] is 250 nM.
`Cc1nc(NS(=O)(=O)c2cc(Cl)c(NCC34CCCN3CCC4)cc2F)sc1F`: the log distribution coefficient (logD) in data set [4] is 1.3. In addition, the CL in the data set on Rattus norvegicus is 630 mL/min/kg.
Turning to `O=S(=O)(Nc1ncns1)c1cc(Cl)c(NCC23CCCN2CCC3)cc1F`, in [4], the logD came to 0.4. In addition, in the data set on Rattus norvegicus, the CL was 660 mL/min/kg.
The like results for `O=S(=O)(Nc1nccs1)c1cc(Cl)c(NCC23CCCCN2CCCC3)cc1F` were, in that order, 2.2 and 3000 mL/min/kg.
With `Cc1cnc(NS(=O)(=O)c2cc(Cl)c(NCC34CCCN3CCC4)cc2F)s1`, the logD in data set [4] was found to be 1.1. This compound showed a CL in the data set on Rattus norvegicus of 560 mL/min/kg.
Turning to `O=S(=O)(Nc1ccncn1)c1cc(Cl)c(NCC23CCCN2CCC3)cc1F`, the logD in data set [4] is -0.2. In the data set with Rattus norvegicus, this compound returned a CL of 61 mL/min/kg.
In [4], `O=S(=O)(Nc1ncc(F)s1)c1cc(Cl)c(NCC23CCCN2CCC3)cc1F` displayed a log distribution coefficient (logD) of 1. The same compound had a CL in the data set on Rattus norvegicus of 230 mL/min/kg. The compound also registered a bioavailability in [5] of 55%.
`O=S(=O)(Nc1nccs1)c1cc(Cl)c(NC[C@]23CCCN2C[C@@H](F)C3)cc1F` yielded a logD in data set [4] of 1.5. This compound also returned a CL with Rattus norvegicus of 810 mL/min/kg. For the same compound, the bioavailability in data set [5] was 57%.
With `O=S(=O)(Nc1cscn1)c1cc(Cl)c(NCC23CCCN2CCC3)cc1F`, the logD in [4] was 0.7.
On to `O=S(=O)(Nc1ncns1)c1cc(F)c(NCC23CCCN2CCC3)cc1F`, for which the logD in [4] was found to be 0. The CL in the data set with Rattus norvegicus worked out at 62 mL/min/kg. In data set [5], this compound yielded a bioavailability of 4%.
Compound `O=S(=O)(Nc1nccs1)c1cc(Cl)c(NCC23CCCN2CC(F)(F)C3)cc1F` (configuration not stated) registered a logD in data set [4] of 1.7.
Regarding `CC1(C)CN2CCC[C@@]2(CNc2cc(F)c(S(=O)(=O)Nc3nccs3)cc2Cl)C1`, the logD in data set [4] turned out to be 1.7. The compound further returned a CL in the data set with Rattus norvegicus of 850 mL/min/kg. The compound also returned a bioavailability in [5] of 45%.
On to `Cc1csc(NS(=O)(=O)c2cc(Cl)c(NCC34CCCN3CCC4)cc2F)n1`, for which, in [4], the logD was determined as 1.1. In the data set with Rattus norvegicus, this compound registered a CL of 71 mL/min/kg. This compound registered a bioavailability in [5] of 36%.
In turn, `O=S(=O)(Nc1nccs1)c1cc(Cl)c(NCCC23CCCN2CCC3)cc1F` registered a logD in [4] of 0.6. Further, in the data set with Rattus norvegicus, the CL is 1600 mL/min/kg. Besides, the bioavailability in data set [5] was 30%.
`O=S(=O)(Nc1ncc(Cl)s1)c1cc(Cl)c(NCC23CCCN2CCC3)cc1F` displayed a logD in data set [4] of 1.3. Moreover, the CL in the data set with Rattus norvegicus stood at 780 mL/min/kg. The bioavailability in [5] was found to be 45%.
As for `O=S(=O)(Nc1nccs1)c1cc(Cl)c(NC[C@@]23CCCN2C[C@H](F)C3)cc1F`, in data set [4], the logD was determined as 1.5.
Turning to `O=S(=O)(Nc1cccc(F)n1)c1cc(Cl)c(NCC23CCCN2CCC3)cc1F`, the logD in [4] worked out at 1. The CL in the data set on Rattus norvegicus was 610 mL/min/kg. The compound also registered a bioavailability in data set [5] of 26%.
